Results reported in paper PMC3315515, “Identification of Novel Mt-Guab2 Inhibitor Series Active against M. tuberculosis” (PLoS ONE, 2012).
Converted amounts (≈) assume the structure as drawn. “And” between values parts separate entries of the source, which are not always exact repeats. Identical values can stand only once. “Also recorded” adds a separate entry of the source. Like-named read-outs stand apart in the source and are kept apart here.

Legend:
Mt-GuaB2 = Mt-GuaB2 (Mycobacterium tuberculosis, UniProt P9WKI7); experiment: Mt-GuaB2 spectrophotometric assay (NADH formation at 340 nm), inhibitor kinetics; assay type: biochemical
Chain of Mt-GuaB2 (P9WKI7 whole entry, looked up): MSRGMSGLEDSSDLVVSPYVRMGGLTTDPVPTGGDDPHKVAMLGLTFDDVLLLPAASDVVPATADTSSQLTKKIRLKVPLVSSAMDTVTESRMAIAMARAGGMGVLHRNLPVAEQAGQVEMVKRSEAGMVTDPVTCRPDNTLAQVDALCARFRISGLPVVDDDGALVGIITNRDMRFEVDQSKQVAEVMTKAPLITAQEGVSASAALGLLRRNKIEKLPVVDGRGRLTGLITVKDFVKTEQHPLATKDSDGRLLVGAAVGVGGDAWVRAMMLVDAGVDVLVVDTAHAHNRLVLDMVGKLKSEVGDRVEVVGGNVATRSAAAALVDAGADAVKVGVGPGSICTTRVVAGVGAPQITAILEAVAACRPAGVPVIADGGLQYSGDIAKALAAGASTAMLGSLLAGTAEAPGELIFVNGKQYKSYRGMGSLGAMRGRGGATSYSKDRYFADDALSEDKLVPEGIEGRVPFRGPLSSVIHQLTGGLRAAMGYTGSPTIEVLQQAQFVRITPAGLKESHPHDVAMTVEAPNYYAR

M. tuberculosis H37Rv = settings: cited from earlier work
M. smegmatis mc^2 155 = experiment: microbe, parasite or virus in culture; assay type: cell-based; settings: for M. smeg MIC90: Table 2, highest concentration tested 128 µg/ml
M. smegmatis pVV16 = experiment: MIC of M. smegmatis with empty pVV16 vector control; assay type: cell-based; settings: Mycolicibacterium smegmatis, Figure 4, vector alone control
[1] = acute maximum tolerated dose (MTD) test; settings: single dose 100, 300, 500 mg/kg by gavage in 0.5% methyl cellulose, seven days observation, C57BL/6 mice
[2] = tested on: M. smegmatis overexpressing Mt-GuaB2; experiment: microbe, parasite or virus in culture; assay type: cell-based
[3] = tested on: M. tuberculosis Erdman strain; settings: for Log 10 Protection, spleen / Log 10 Protection, lung: versus untreated controls d24, INH 25, 7759844 300 mg/kg/day
M. smegmatis = experiment: bactericidal activity against M. smegmatis (colony counts after 24 hours exposure); assay type: cell-based; settings: Mycolicibacterium smegmatis, at least 99% reduction of viable counts, read-out: minimum bactericidal concentration (MBC)
[4] = tested on: NC(=O)c1ccc[n+]([C@@H]2O[C@H](COP(=O)([O-])OP(=O)(O)OC[C@H]3O[C@@H](n4cnc5c(N)ncnc54)[C@H](O)[C@@H]3O)[C@@H](O)[C@H]2O)c1; experiment: purified protein, by the assay type; settings: other: variable substrate, fixed saturating co-substrate, 200 µl assay; pH 8.5; 37.0 °C
S. pyogenes IMPDH = settings: ref [29], [34]; cited from earlier work
[5] = Table 2, varied IMP, fixed saturating NAD+ 2.8 mM
[6] = Table 2, values with footnote a, ref Reynolds et al., 2011
[7] = Table 2, Life Chemicals set, values without footnote a, previous screens ref [35]–[37]

Compound | IMP αK i (Mt-GuaB2; [5]) [µM] | M. smeg MIC90 (M. smegmatis mc^2 155; TSB agar, 37°C, 3 days) [µg/mL] | M. tb MIC90 (M. tuberculosis H37Rv; [7]) [µg/mL] | other results
Cc1ccc(C)c(-c2nnc(NC(=O)c3cccc4ccccc34)o2)c1 [F2518-0386] | 22.6 | – | – | M. tb MIC90 (M. tuberculosis H37Rv; [6]): 0.41 µg/ml and 0.41 ^a µg/ml
O=C(Nc1nnc(-c2ccccc2Cl)o1)c1nc2ccccc2s1 [F1374-0033] | 60.9 | 8 | 1.75 | –
COc1cc2ccccc2cc1C(=O)Nc1nnc(-c2ccc(F)cc2)o1 [F1374-0205] | 35.3 | >128 | 5.59 | –
O=C(Nc1nnc(-c2cccs2)o1)c1nc2ccccc2s1 [F1374-0978] | 28.3 | >128 | – | M. tb MIC90 (M. tuberculosis H37Rv; [6]): 2.98 ^a µg/ml
CCOc1cc(-c2nnc(NC(=O)c3cc4ccccc4cc3OC)o2)cc(OCC)c1OCC [F2517-0198] | 19.1 | >128 | 2.68 | –
Cc1ccc(C)c(-c2nnc(NC(=O)COc3ccccc3)o2)c1 [F2518-0418] | 328.7 | 32 | 2.24 | –
Cc1ccc(C)c(-c2nnc(NC(=O)C3COc4ccccc4O3)o2)c1 (centres unmarked) [F2518-0401] | 501.9 | 16 | 1.18 | –
O=C(Nc1nnc(-c2ccccc2)o1)c1cc(-c2cccs2)nc2ccccc12 [F1374-0885] | 19.0 | 2 | 0.72 | –
COc1ccccc1-c1nnc(NC(=O)c2sc3ccccc3c2Cl)o1 [F1374-0253] | 11.2 | >128 | 5.30 | pattern of inhibition with respect to IMP (Mt-GuaB2): uncompetitive inhibition; pattern of inhibition with respect to NAD+ (Mt-GuaB2): noncompetitive inhibition; pattern of inhibition with respect to NAD (Mt-GuaB2; Table 2): NC ((NC) Noncompetitive); Ki (Mt-GuaB2; Table 2, varied NAD+, fixed saturating IMP […], read-out: NAD K i): 435 µM
COc1ccc(OC(C)C(=O)Nc2ccc(I)cc2)cc1 (centres unmarked) [compound 7759844] | – | – | – | MIC99 (M. smegmatis pVV16): 8 µg/mL; IMP αK i (Mt-GuaB2; Table 1, varied IMP, fixed saturating NAD+ 2.8 mM): 0.603 µM; IMP αK i (Mt-GuaB2; Table 3, analogs of lead scaffold): 0.603 µM; K i values (Mt-GuaB2; with respect to both substrates IMP and NAD+): nanomolar range; tolerability, acute single dose [1]: no dose related adverse effects; also recorded: well tolerated with no acute adverse effects; also recorded: not toxic; MIC90 (M. smegmatis mc^2 155; Mycolicibacterium smegmatis, MC^2155, 72 h, Table 1, TSB agar, 37°C, 3 days, read-out: M. smeg MIC90): 8 µg/mL (≈ 20.1 µM); MIC99 (M. smegmatis mc^2 155; Mycolicibacterium smegmatis, MC^2155, Figure 4, M. smegmatis mc^2 155): 8 µg/mL (≈ 20.1 µM); MIC99 ([2]; Mycolicibacterium smegmatis, Figure 4, Mt-GuaB2 overexpression construct in pVV16): 48 µg/mL (≈ 121 µM); increase in MIC of Mt-GuaB2 overexpressing strain ([2]; compared with pVV16 vector control and wild type M. smegmatis): 6 fold; Log 10 Protection, spleen ([3]; spleen): 0.84 log10 protection units; Activity ([3]; spleen, 300 mg/kg/day): slightly active; M. tb MIC90 (M. tuberculosis H37Rv; Table 1, Chembridge compounds, M. tuberculosis H37Rv, previous screens ref [35]–[37]): 0.63 µg/mL; M. tb MIC90 (M. tuberculosis H37Rv; Table 3, analogs of lead scaffold, previous screens ref [35]–[37]): 0.633 µg/mL; MBC (M. smegmatis): 32 µg/mL (≈ 80.6 µM)
Mt-GuaB2 (Mycobacterium tuberculosis H37Rv) | – | – | – | Km [4]: 699.4 ± 63.70 µM
NC(=O)c1ccc[n+]([C@@H]2O[C@H](COP(=O)([O-])OP(=O)(O)OC[C@H]3O[C@@H](n4cnc5c(N)ncnc54)[C@H](O)[C@@H]3O)[C@@H](O)[C@H]2O)c1 [NAD^+, nicotinamide adenine dinucleotide] | – | – | – | Km (S. pyogenes IMPDH): ~1180 µM
NNC(=O)c1ccncc1 [Isoniazid, isoniazid, reference compound] | – | – | – | Log 10 Protection, lung ([3]; 300 mg/kg/day): 2.7 log10 protection units; Log 10 Protection, lung ([3]; listed as INH, 300 mg/kg/day): 2.70 log10 protection units; Log 10 Protection, spleen ([3]; spleen, 300 mg/kg/day): 4.0 log10 protection units; Log 10 Protection, spleen ([3]; spleen, listed as INH, 300 mg/kg/day): 4.04 log10 protection units
O=C(Nc1nnc(-c2ccc(Cl)s2)o1)c1nc2ccccc2s1 [F1374-1083] | 4.86 | >128 | 4.81 | –
Cc1ccc(-c2nnc(NC(=O)COc3ccccc3)o2)c(C)c1 [F2518-0274] | 765.4 | 20 | 5.50 | –
CC(C)c1ccc(OCC(=O)Nc2nccs2)cc1 [F1685-0077] | 229.3 | >128 | 6.88 | –
O=C(CS(=O)(=O)c1ccccc1)Nc1nc(-c2ccc3c(c2)CCCC3)cs1 [F2536-1573] | 79.0 | >128 | 1.02 | –
Cc1ccc(-c2nnc(NC(=O)c3nc4ccccc4s3)o2)c(C)c1 [F2518-0183] | 57.1 | >128 | – | M. tb MIC90 (M. tuberculosis H37Rv; [6]): 1.76 ^a µg/ml
COc1cc2ccccc2cc1C(=O)Nc1nnc(-c2cc(C)ccc2C)o1 [F2518-0413] | 36.4 | >128 | 1.23 | –
O=C(Nc1nnc(-c2ccc(Br)cc2)o1)c1sc2ccccc2c1Cl [F2518-0484] | 35.5 | 3 | 6.70 | –
